Assay results from patent publication US20020162125A1, “Methods and compositions for the modulation of neurogenic inflammatory pain and physical opiate withdrawal” (priority 2001, published 2002).
Like-named read-outs stand apart in the source and are kept apart here.

How the values were obtained:
[1] = system: αCGRP −/− and αCGRP +/+ mice; assay: Heroin self-administration (lever press operant task); format: in vivo
Protocol: Following acquisition of stable heroin self-administration at 15.0 μg/kg/injection dose (3 consecutive sessions <+/−20% variation, >70% active lever responding), mice were allowed to self-administer heroin at each dose during two daily two-hr sessions in a Latin square dose order. After all heroin doses had been tested, saline vehicle was substituted for heroin until responding stabilized for at least 2 consecutive sessions (data points above “saline”).
All procedures involving animals described here were approved by the Service Vétérinaire of the Canton of Vaud, Lausanne, Switzerland. Six individually housed mice of each genotype (CGRP −/− and +/+) were tested during the light phase (12/12; lights on 7:00 am) in daily sessions 5 days/week. Operant chambers housed in sound-attenuating cubicles with a house light and ventilation fan were equipped with cue lights above two retractable levers, a liquid dipper, syringe pump, liquid swivel and counterbalance arm (swivel and counterbalance arms—Instech, Plymouth Meeting, Pa., USA; all other equipment—MedAssociates, Georgia, Vt., USA). A single lever press on the “active” lever raised the dipper into the cage for 10 s and illuminated the cue light above the lever during reinforcer presentation and for a 1-10 s post-reinforcer Time-out (TO) period, depending on the schedule of reinforcement. […]

[2] = system: αCGRP −/− and αCGRP +/+ mice; assay: Morphine tolerance in the tail-flick assay after repeated injections; format: in vivo; conditions: αCGRP −/− vs +/+ mice; repeated ip morphine, day 1-2 50 mg/kg, day 3-4 100 mg/kg
Protocol: Daily injections ip of morphine were performed: day 1 and 2, 50 mg/kg, day 3-4, 100 mg/kg. Analgesia morphine was tested. αCGRP −/− and +/+ mice were analyzed in parallel.

[3] = system: αCGRP −/− and αCGRP +/+ mice; conditions: αCGRP −/− mice vs +/+, 30 min after injection
Protocol: The tail flick assay was performed with a tail flick analgesia meter from Columbus Instruments. The cut-off time of the test was 10 seconds.
Morphine or nicotine analgesia were analyzed by using tail flick and hot plate tests. The tests were performed 30 minutes after the injection of drug on αCGRP −/− and +/+ mice.

[4] = system: αCGRP −/− and αCGRP +/+ mice; assay: Morphine dependence, naloxone-precipitated somatic withdrawal signs
Protocol: Morphine dependence was induced by repeated ip morphine injection for one week: day 1 and 2, 50 mg/kg; day 3 and 4, 100 mg/kg; days 5-7, 100 mg/kg twice/day; day 8, 100 mg/kg in the morning. […] The inventors noted the behavioral withdrawal symptoms (jumping, teeth chattering, tremors, paw tremors, wet dog shakes, ptosis, diarrhea) during 30 minutes after naloxone injection.

[5] = system: αCGRP −/− and αCGRP +/+ mice; conditions: αCGRP −/− mice vs +/+; nicotine 0.5 and 2.0 mg/kg sc; data not shown

CC(=O)Oc1ccc2c3c1O[C@H]1[C@@H](OC(C)=O)C=C[C@H]4[C@@H](C2)N(C)CC[C@@]341 [heroin]
intake (injections per session) at 30 μg/kg/injection vs 7.5 and 15.0 μg/kg/injection doses ([1]; both genotypes, P<0.05): differed significantly
acquisition or maintenance of self-administration ([1]; αCGRP −/− vs +/+ mice, 3.75-30 μg/kg/injection iv, FR2): did not differ

CN1CC[C@]23c4c5ccc(O)c4O[C@H]2[C@@H](O)C=C[C@H]3[C@H]1C5 [morphine]
progressive decrease in amplitude of antinociceptive response (tolerance), tail-flick [2]: did not differ
analgesic response in tail-flick (% MPE) ([3]; morphine 1 mg/kg ip): attenuated
analgesic response in tail-flick (% MPE) ([3]; morphine 5 mg/kg ip): to a lesser extent

C=CCN1CC[C@]23c4c5ccc(O)c4O[C@H]2C(=O)CC[C@@]3(O)[C@H]1C5 [naloxone]
withdrawal signs in saline-treated control mice ([4]; naloxone 2 mg/kg ip, mutant and wild type, data not shown): did not induce any withdrawal signs
total withdrawal scores ([4]; αCGRP −/− vs +/+ mice made morphine dependent, naloxone 0.1, 0.2 and 2.0 mg/kg ip): significantly lower
frequency of each somatic sign of morphine withdrawal (e.g. jumping) ([4]; αCGRP −/− vs +/+ mice made morphine dependent, precipitated by naloxone): reduced

CN1CCCC1c1cccnc1 (stereo not shown) [nicotine]
analgesic effects in hot-plate test [5]: significantly increased
analgesic effects in tail-flick (% MPE) ([3]; nicotine 0.5 and 2.0 mg/kg sc): significantly increased
